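Following 48 hours of exposure in 96-well plates, responses at five concentrations were used to interpolate endpoints linearly. GI50 is the concentration that inhibits growth by half.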 Activity calls are given as the source filed them. Rule as the data show it: active = GI50 up to about 1.1 µM and inactive = higher.
Tests used:
Assay in all cases: DTP human tumour cell line panel, 48 h
CCRF-CEM = tested on: CCRF-CEM
SW-620 = tested on: SW-620
HL-60 = tested on: HL-60
UACC-257 = tested on: UACC-257
OVCAR-3 = tested on: OVCAR-3
UACC-62 = tested on: UACC-62
SR = tested on: SR
RPMI-8226 = tested on: RPMI-8226
TK-10 = tested on: TK-10
SNB-19 = tested on: SNB-19
A549 = tested on: A549
RXF 393 = tested on: RXF 393
HOP-92 = tested on: HOP-92
SK-MEL-2 = tested on: SK-MEL-2
A498 = tested on: A498

Measured: GI50

COc1cc(-c2cc(O)c3ccccc3n2)cc(OC)c1OC
inactive: CCRF-CEM > 75 µM | SW-620 > 75 µM | HL-60 > 7.5 µM | UACC-257 > 75 µM | OVCAR-3 > 75 µM | UACC-62 > 75 µM | SR > 75 µM | RPMI-8226 > 75 µM | TK-10 > 75 µM | SNB-19 > 75 µM | A549 > 75 µM | RXF 393 > 75 µM

COc1cccc(NC(=O)C(=O)C(C(=O)c2ccccc2F)C2OC(=O)c3ccccc32)c1 (centres undefined)
inactive: CCRF-CEM 16.9 µM | SW-620 42.6 µM | HL-60 20.7 µM | HOP-92 > 100 µM | UACC-257 > 100 µM | UACC-62 26 µM | SK-MEL-2 22.5 µM | A498 72.6 µM | SR 16.6 µM | RPMI-8226 21.6 µM | TK-10 > 100 µM | SNB-19 24.9 µM | A549 45.3 µM | RXF 393 28.1 µM

CCCCCCCCSC(SCCCCCCCC)=C1C(=O)N(c2ccccc2)N=C1C
inactive: CCRF-CEM 16.1 µM | SW-620 14.5 µM | HL-60 19.2 µM | HOP-92 31.8 µM | UACC-257 30.5 µM | OVCAR-3 29.4 µM | UACC-62 24.5 µM | SK-MEL-2 58.6 µM | A498 24.3 µM | SR 14.9 µM | RPMI-8226 39.4 µM | TK-10 42.6 µM | SNB-19 30.3 µM | A549 26.8 µM | RXF 393 53.5 µM

CS(=O)(=O)CSCSSCS(C)(=O)=O
inactive: CCRF-CEM 22.2 µM | SW-620 16.8 µM | HL-60 21.1 µM | HOP-92 27.7 µM | UACC-257 28.4 µM | OVCAR-3 47.1 µM | UACC-62 20.7 µM | SK-MEL-2 21.2 µM | A498 88.9 µM | SR 16.5 µM | RPMI-8226 20.4 µM | TK-10 > 90.6 µM | SNB-19 74.3 µM | A549 > 100 µM | RXF 393 17.1 µM

O=C1CCC(c2nc3cc(Cl)ccc3o2)C(=O)N1 (centres undefined)
inactive: CCRF-CEM > 100 µM | SW-620 > 100 µM | HL-60 > 100 µM | HOP-92 > 100 µM | UACC-257 > 100 µM | OVCAR-3 > 100 µM | UACC-62 > 100 µM | SK-MEL-2 > 100 µM | A498 > 100 µM | SR > 100 µM | TK-10 > 100 µM | SNB-19 > 100 µM | A549 > 100 µM | RXF 393 > 100 µM

COC(=O)/C=C\C1C(C(=O)OC)C2(C(=O)OC)CCC1(C(=O)OC)N2 (centres undefined)
inactive: CCRF-CEM 4.15 µM | SW-620 3.13 µM | HL-60 2.51 µM | HOP-92 4.81 µM | UACC-257 6.5 µM | OVCAR-3 15.3 µM | UACC-62 15.9 µM | SK-MEL-2 15.5 µM | A498 18.1 µM | SR 5.37 µM | RPMI-8226 5.08 µM | TK-10 4.47 µM | SNB-19 15.8 µM | A549 20.4 µM | RXF 393 7.21 µM

N#Cc1cnsc1
inactive: CCRF-CEM > 100 µM | SW-620 > 100 µM | HL-60 > 100 µM | HOP-92 > 100 µM | UACC-257 > 100 µM | OVCAR-3 > 100 µM | UACC-62 > 100 µM | SK-MEL-2 > 100 µM | A498 > 100 µM | SR > 100 µM | RPMI-8226 > 100 µM | TK-10 > 100 µM | A549 > 100 µM | RXF 393 > 100 µM

O=C(O/N=C1\CCCC\C1=C/c1ccccc1)c1ccc([N+](=O)[O-])cc1
inactive: CCRF-CEM > 100 µM | SW-620 > 100 µM | HL-60 76.9 µM | HOP-92 > 100 µM | OVCAR-3 42.1 µM | UACC-62 > 100 µM | SK-MEL-2 > 100 µM | SR > 100 µM | RPMI-8226 > 100 µM | A549 88.5 µM | RXF 393 > 100 µM

N#CNC(=N)NC(=O)/C=C/C=C/c1ccc(Cl)cc1
inactive: CCRF-CEM > 100 µM | SW-620 > 100 µM | HL-60 > 100 µM | HOP-92 > 100 µM | UACC-257 > 100 µM | OVCAR-3 > 100 µM | UACC-62 > 100 µM | SK-MEL-2 > 100 µM | A498 > 100 µM | SR 72.9 µM | RPMI-8226 > 100 µM | TK-10 94.2 µM | A549 > 100 µM | RXF 393 41.6 µM

COC1=CC(=O)[C@]2(C)[C@H](C1=O)C(C)[C@H]2c1ccccc1 (some centres undefined)
inactive: CCRF-CEM > 100 µM | SW-620 > 100 µM | HL-60 > 100 µM | HOP-92 > 100 µM | UACC-257 > 100 µM | OVCAR-3 > 100 µM | UACC-62 > 100 µM | SK-MEL-2 > 100 µM | A498 > 100 µM | SR > 100 µM | RPMI-8226 > 100 µM | TK-10 > 100 µM | SNB-19 > 100 µM | A549 > 100 µM | RXF 393 > 100 µM
